# Tests used:
# [1] = tested on: Reserpine-induced fibromyalgia rat model; assay: Reserpine-induced fibromyalgia rat model: pain (von Frey test); assay type: in vivo; details: gabapentin 50 mg/kg IP QD; Example 2 3, 10, 30 mg/kg PO QD; days 1, 2, 4, 6
# Method: Reserpine-induced fibromyalgia model generation and drug administration were carried out on 6-week-old male SD rats divided into 6 groups as shown in Table 15 below: control group (G1), reserpine+delivery (G2), reserpine+gabapentin 50 mg/kg (G3), reserpine+Example 2 3 mg/kg (G4), 10 mg/kg (G5), and 30 mg/kg (G6). To create a rat fibromyalgia model, reserpine (Sigma-aldrich, 1 mg/kg) dissolved in 0.5% acetic acid was administered subcutaneously once for 3 days from 3 days before the start of the experiment. Beginning on Day 1, the once-daily (QD) delivery body, gabapentin, and embodiment 2 were administered intraperitoneally (IP) or orally (PO) 2 hours before the experiment was performed.
# The right hind foot tactile response test (von Frey test) was performed 5 times (before the fibromyalgia model, and on the 1st, 2nd, 4th and 6th days after the model was generated). Before all behavioral tests, rats were accustomed to the environment for 30 minutes, and all experimenters performing behavioral tests were made blind to drug administration information. Before model generation, baseline measurements were performed by performing the von Frey test on all rats. The rat was placed on a wired mesh and placed in a transparent plastic box (20×20×14 cm), and the foot withdrawal threshold was measured by applying a von Frey filament (ascending weight: 0.4, 0.6, 1.4, 2, 4, 6, 8, and 15 g, North Coast) to the middle of the right hind foot to assess foot allodynia.
# PC12 cells [2] = assay: Neuronal protective efficacy against 6-OHDA (MTT); assay type: cell-based; details: Rattus norvegicus, PC-12, 6-OHDA 40 μM, Control = 100, read-out: cell viability (AVE)
# Method: (§1) The neuronal toxicity substances 6-OHDA (6-hydroxydopamine hydrobromide) and MPP+ (1-methyl-4-phenylpyridinium) were purchased from Sigma-Aldrich (Saint Louis, MO, USA) and made into 100 mM DMSO stock. PC12 cells were seeded on 96-well plates with 4 pieces of 1×10 per well and incubated for one day. The cells were pretreated with each concentration of embodied compound for 1 h. Subsequently, 40 μM 6-OHDA and 2 mM MPP^+ were added and incubated for 24 hours, respectively. Subsequently, cell viability was measured using MTT (Invitrogen, MA, USA).
# [3] = tested on: CDAHFD-induced non-alcoholic steatohepatitis mouse model; assay: CDAHFD-induced non-alcoholic steatohepatitis mouse model: liver fibrosis (Picrosirius red); assay type: in vivo; details: Selonsertib 30 mg/kg, Example 3 10 and 30 mg/kg, Example 2 10 and 30 mg/kg PO QD; CDAHFD diet 4 and 8 weeks
# Method: Creation of CDAHFD-induced NASH model and drug administration were carried out by dividing C57BL/6 male mice at 3 weeks of age into 7 groups as shown in Table 16 below. The control group (G1) was fed standard feed and water. Groups G2 to G7 were fed the CDAHFD (Research Diet Inc, #A06071302) diet for 4 and 8 weeks.
# Picrosirius red staining was used for histological visualization of collagen fibers. Histopathology analysis evaluated the efficacy of improving liver fibrosis.
# For mice in each group, three sections of the liver fixed with 4% PFA (paraformaldehyde) were prepared with paraffin blocks. Paraffin blocks were sectioned to a thickness of 5 μm (Histocore AUTOCUT R, Leica Microsystems, Germany) and the sections were mounted on silane-coated slides (MUTO, JPN) and stored until staining.
# Xylene was used to remove paraffin from the slides, and the slides were moisturized and washed. The slides were stained with a solution of Picrosirius red (ab150681, Abcam, UK) and washed off with a solution of acetic acid. The slides were fitted after dehydration and cleaning using alcohol and xylene. For each section, two images of different areas were taken using a microscope (Axioscan7, ZEISS, Germany). The fibrotic area was measured using image J software compared to the total area. FIGS. 23a and 23b are graphs and images of Picrosirius red stained area ratios in the liver of a CDAHFD-induced mouse model of nonalcoholic steatohepatitis.
# [4] = Distribution in the mouse brain (plasma and brain AUC); assay type: in vivo
# Method: The blood-brain barrier permeability in ICR mice was confirmed by oral administration of 10 mg/kg of test material. Male […] mice were fasted for 15 h prior to administration. The test material was administered at a dose of 10 mg/kg and a volume of 5 mL/kg, and the solvent composition was N-Methyl-2-pyrrolidone (NMP), Polyethylene glycol 400 (PEG 400), and distilled water (D.W) at a volume ratio of 10:40:50(%), respectively. After administration, blood and brain tissue samples were taken by sacrificing mice with carbon dioxide inhalation at each time point corresponding to 1, 4, and 8 hours. Whole blood was collected from the abdominal vena cava, and brain samples were collected after systemic perfusion with saline to remove as much blood as possible.
# The distribution ratio in mouse plasma and brain was calculated by calculating the AUC after concentration quantification in each tissue.
# SH-SY5Y cells = assay: Cytoprotective effects in MPP+-induced human neurons (CCK-8); assay type: cell-based; details: MPP+ 5 mM induced cytotoxicity, cell viability by CCK-8
# Method: SH-SY5Y cells were purchased from ATCC and cultured at 37° C. and 5% CO2 in RPMI medium containing 10% FBS and 1% penicillin and streptomycin. MPP+ was purchased from Sigma Aldrich and treated with 5 mM to induce cytotoxicity.
# PC12 cells [5] = assay: Neuronal protective efficacy against MPP+ (MTT); assay type: cell-based; details: Rattus norvegicus, PC-12, MPP 2 mM, Control = 100, read-out: cell viability (AVE)
# Method: as §1
# [6] = tested on: MPTP-induced PD mouse model; assay: MPTP-induced PD mouse model: TH staining of striatum and substantia nigra; assay type: in vivo; details: PO QD Day 1-7; Nilotinib 40 mg/kg, Example 3 2/10/50 mg/kg, Example 2 50 mg/kg; vs MPTP group G2
# Method: Mice at 7 weeks of age were divided into 7 groups as shown in Table 9 below to generate an acute MPTP model and proceed with drug administration: control group+vehicle (G1), MPTP+vehicle (G2), MPTP+Nilotinib 40 mg/kg (G3), MPTP+Example 3 2 mg/kg (G4), MPTP+Example 3 10 mg/kg (G5), MPTP+Example 3 50 mg/kg (G6), and MPTP+Example 2 50 mg/kg (G7). The test drug was administered orally (PO) at 10 ml/kg once daily (QD) from Day 1 to Day 7. The acute MPTP model will be performed at 2-hour intervals in all groups except the control group. […] was administered as intraperitoneal (IP) injection for 4 doses. The control group was given the same amount of 0.9% saline. The Pole test was performed on day 4 (after training on day 2 and day 3). On day 7, all mice were euthanized, and their brains were harvested.
# Mice were euthanized with Zoletil administration for collection of tissue samples for staining and analysis of histological sections. Blood was collected from the heart of the mouse and then the residual blood was perfused with phosphate-buffered saline (PBS). For half of the mice (n=6/group), the brain was incised into the striatum, substantia nigra, and the rest of the brain, flash-frozen, and stored at −80° C. The remaining mice (n=6/group) had their brains isolated and immobilized in 4% paraformaldehyde for 24 hours at 4° C., followed by 30% sucrose in phosphate-buffered saline (PBS) containing 0.02% sodium azide and stored at 4° C. for 3 days. Immunohistochemical sections were performed on brain samples embedded with optimal cutting temperature (OCT) compounds. Samples were sectioned to a thickness of 20 μm using Leica CM1950 (Leica Microsystems, Germany) and stored at 4° C. in a preservation solution until staining with antibodies.
# After staining the striatum and substantia nigra of the brain and mounting them on microscopic slides, the slides were washed with PBS containing 0.3% Triton X-100 and peroxidase block for 15 min at room temperature. The slides were washed three times with PBS containing 0.3% Triton X-100 and then blocked at RT (room temperature) for 1 hour in a solution containing PBS, 5% normal goat serum, and 0.3% Triton X-100. Tyrosine hydroxylase antibody was diluted at 1:1000 and incubated overnight at 4° C. The slides were washed with PBS solution and incubated for 1 h at RT with secondary antibody. The slides were washed with PBS solution and the sections were placed in the solution to proceed with the DAB (diaminobenzidine) reaction.
# The DAB response was monitored under a microscope for 2 to 3 minutes, and the slides were washed with PBS to stop the DAB response, dehydrated, and mounted using xylene. An Olympus microscope (Olympus, SZ61, BX51) was used to visualize TH stained images. The optical density (OD) value of positive TH staining was measured in the striatum and substantia nigra and analyzed using Image J software.
# [7] = biological target: T1, recombinant human ASK1 protein (Homo sapiens, UniProt Q99683); assay: Evaluation of ASK1 inhibition activity ([gamma-33P]-ATP, scintillation counting); assay type: biochemical; details: 0.5 uM; activity of group without compound set at 100%; read-out: Remaining kinase activity (%) at 0.5 uM
# T1 sequence (Q99683 1-1374): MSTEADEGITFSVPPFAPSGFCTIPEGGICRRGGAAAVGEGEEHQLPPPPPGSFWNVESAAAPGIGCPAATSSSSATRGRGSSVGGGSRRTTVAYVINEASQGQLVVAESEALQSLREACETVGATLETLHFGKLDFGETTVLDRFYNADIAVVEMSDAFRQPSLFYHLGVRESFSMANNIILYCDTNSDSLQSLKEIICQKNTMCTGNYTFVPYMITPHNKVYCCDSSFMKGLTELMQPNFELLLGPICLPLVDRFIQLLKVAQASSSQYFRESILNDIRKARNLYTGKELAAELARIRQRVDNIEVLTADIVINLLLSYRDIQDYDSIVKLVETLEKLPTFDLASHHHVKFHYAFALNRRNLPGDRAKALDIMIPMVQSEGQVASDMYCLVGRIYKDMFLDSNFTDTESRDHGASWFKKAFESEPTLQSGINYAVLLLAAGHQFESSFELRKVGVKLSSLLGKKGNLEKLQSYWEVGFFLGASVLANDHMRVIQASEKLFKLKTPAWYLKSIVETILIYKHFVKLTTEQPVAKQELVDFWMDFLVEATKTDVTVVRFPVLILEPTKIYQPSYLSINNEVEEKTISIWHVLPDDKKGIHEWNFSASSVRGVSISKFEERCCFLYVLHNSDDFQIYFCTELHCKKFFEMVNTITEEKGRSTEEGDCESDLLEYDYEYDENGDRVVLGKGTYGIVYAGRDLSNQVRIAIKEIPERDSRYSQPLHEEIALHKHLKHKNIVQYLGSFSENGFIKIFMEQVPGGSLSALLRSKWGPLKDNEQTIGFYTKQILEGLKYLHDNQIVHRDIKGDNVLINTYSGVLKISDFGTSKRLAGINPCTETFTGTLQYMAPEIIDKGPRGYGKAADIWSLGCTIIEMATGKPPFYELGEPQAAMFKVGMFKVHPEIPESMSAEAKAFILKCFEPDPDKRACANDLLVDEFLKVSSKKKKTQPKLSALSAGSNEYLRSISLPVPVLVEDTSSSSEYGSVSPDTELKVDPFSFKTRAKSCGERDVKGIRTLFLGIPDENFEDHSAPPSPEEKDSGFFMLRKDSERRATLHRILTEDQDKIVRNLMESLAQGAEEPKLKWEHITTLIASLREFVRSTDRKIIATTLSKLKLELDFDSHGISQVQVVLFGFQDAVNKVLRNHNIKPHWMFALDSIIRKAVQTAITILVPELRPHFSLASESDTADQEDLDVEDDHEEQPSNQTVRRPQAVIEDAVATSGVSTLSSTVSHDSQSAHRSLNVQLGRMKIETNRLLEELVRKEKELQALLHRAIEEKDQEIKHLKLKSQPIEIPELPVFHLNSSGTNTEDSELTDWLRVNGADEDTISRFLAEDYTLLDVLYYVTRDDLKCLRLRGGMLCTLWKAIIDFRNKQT
# Method: The recombinant human ASK1 protein was initiated by adding a mixture of Mg/ATP to the reaction solution (8 mM MOPS PH 7.0, 0.2 mM EDTA, 0.33 mg/mL myelin basic protein, 10 mM Mg Acetate and [gamma-33P]-ATP), and the reaction was terminated by adding 0.5% phosphoric acid after 40 min at room temperature.
# [8] = oral 10 mg/kg, samples at 1, 4, 8 hours
structure (smiles),measurement,setting,value
"NCC1(CC(=O)O)CCCCC1 [Gabapentin, reference compound]","sensitivity (foot withdrawal threshold, von Frey test)",[1],gradually improved over time
"Cc1cc(F)c(C(=O)Nc2cccc(-c3nncn3C(C)C)n2)cc1-n1cnc(C2CC2)c1 [Comparative Example 1, Selonsertib, reference compound]",viability at 0.1 µM,PC12 cells [2]; compound 0.1 μM,87.9%
same,viability at 0.3 µM,PC12 cells [2]; compound 0.3 μM,89.2%
same,viability at 1 µM,PC12 cells [2]; compound 1 μM,84.1%
same,Picrosirius red staining area in the liver,[3],significantly reduced
same,Kp,"[4]; male, brain/plasma, po, 10 mg/kg",0.004
same,Aukinf brain,[4]; [8],0.26 ± 0.03 ug*h · g.
same,Aukinf plasma,[4]; [8],69.9 ± 3.48 µg·mL·h
same,EC50,SH-SY5Y cells,89 nM
same,viability at 0.1 µM,PC12 cells [5]; compound 0.1 μM,83.6%
same,viability at 0.3 µM,PC12 cells [5]; compound 0.3 μM,81.3%
same,viability at 1 µM,PC12 cells [5]; compound 1 μM,81.3%
"Cc1cn(-c2cc(NC(=O)c3ccc(C)c(Nc4nccc(-c5cccnc5)n4)c3)cc(C(F)(F)F)c2)cn1 [Nilotinib, reference compound]",TH levels in striatum,[6],significantly higher than those in G2
"O=C(Nc1cccc(-n2nnc3c2CCC3)n1)c1cc(-n2cnc(C3CC3)c2)ccc1OC1CC1 [Example 22, 2-cyclopropoxy-5-(4-cyclopropyl-1H-imidazol-1-yl)-N-(6-(5,6-dihydrocyclopenta[d][1,2,3]triazol-1 (4H)-yl)pyridin-2-yl)benzamide]",remaining activity at 0.5 µM,[7],24%
